According to US20180251431A1 (VERTEX PHARMACEUTICALS INCORPORATED, priority 2016, published 2018):

Legend:
[1] = Metabolic intrinsic clearance in rat hepatocytes; type: in vitro ADME; conditions: Sprague Dawley, cryopreserved hepatocytes in suspension, pH 7.5, 0.5 million cells/mL, incubation for 4 hours
Experimental: (§1) The metabolic intrinsic clearance (CLint) of Compound 87 was determined in human, monkey, dog, rat, and mouse hepatocytes. Cryopreserved human hepatocytes (Lot Hue50c), monkey hepatocytes (cynomolgus; Lot Cy328), dog hepatocytes (beagle, Lot Db235), rat hepatocytes (Sprague Dawley; NNH), and mouse hepatocytes (CD-1; Lot Mc522) were obtained from ThermoFisher (Paisley, UK). In separate experiments, compound 87 (1 μM) was incubated with hepatocytes from each species (0.5 million cells/mL, suspension) in Dulbecco's Modified Eagle's Medium (DMEM) supplemented with 4-(2-Hydroxyethyl)piperazine-1-ethanesulfonic acid (HEPES, 9 mM) and fructose (2.2 mM) (pH 7.5). Samples were quenched with acetonitrile and analyzed by LC-MS/MS. The mean CLint for Compound 87 in human, monkey, dog, rat, and mouse hepatocytes after incubation for 4 hours was determined to be ≤2.5, ≤2.5, 7.2, 23.6 and 10.7 μL/min/million cells. Based on these date, Compound 87 was low to moderately metabolized in hepatocytes in mouse, rat, dog, monkey, and human, and the rank order of stability at […] was approximately human>monkey>dog>mouse>rat. […] The metabolic stability of Compound 87 was not expected.

[2] = Metabolic intrinsic clearance in dog hepatocytes; type: in vitro ADME; conditions: beagle, cryopreserved hepatocytes in suspension, pH 7.5, 0.5 million cells/mL, incubation for 4 hours
Experimental: as §1

[3] = Body weight and adverse effects during treatment in the thermal sensitivity studies; type: in vivo, mouse; conditions: ABCD1 KO mice, prophylactic (5 or 20 mg/kg) and therapeutic (32 or 64 mg/kg) PO QD experiments
Experimental: For the prophylactic study, mice were tested beginning at 10 months of age (before the loss of pain sensitivity) using doses of either 5 or 20 mg/kg. For the therapeutic study, mice were tested beginning at 18 months of age, after there was already a significant loss of pain sensitivity, using doses of either 32 or 64 mg/kg. […] The Plantar test (using a Hargreaves apparatus) was used and measured the latency to respond to a thermal stimulus using the following protocol. An individual mouse was placed into an individual compartment with a glass floor for about 10-15 minutes until they were settled. Each individual mouse was given three trials with an infrared source on each hind paw (alternated hind paws each time, and waited 5 minutes between each trial). The infrared source was placed under the glass floor and was positioned by the operator directly beneath the hind paw. A trial was commenced by depressing a key/button which turned on the infrared source and started a digital timer. When a response was observed (paw withdrawal), the key/button was released and the latency to respond was recorded (in seconds).

[4] = test system: wild-type male cynomolgus monkeys; test: Reduction of blood C26:0 LPC in vivo in cynomolgus monkeys; design: species or system cynomolgus monkey; conditions: 30 mg/kg PO QD, after 7 days of dosing
Experimental: (§2) A LC-MS/MS method of analyzing Lysophosphatidylcholine (LPC) in whole blood (dried blood spot card, DBS) and brain tissue samples was developed for measuring the abundance of saturated C16, C18, C20, C22, C24 and C26 LPC in DBS and brain samples. Whole blood was collected with Whatman DMPK-C DBS card at an approximate volume of 20 μL at each time point. Brain tissue was collected at the end point of the study. Samples were prepared and LC-MS/MS analysis was performed as described below.
For DBS bioanalysis, the DBS card was punched at 3 mm in diameter using a semi-automated DBS card puncher. To each punched spot 200 μL of pure methanol was added. […]
(§3) The supernatant obtained from each sample was injected into a LC-MS/MS system (Agilent Technologies, Santa Clara, Calif. and Applied Biosystems, Framingham, Mass.) for analysis. […] LPCs were detected by an AB Sciex API-6500 triple quadrupole MS with electrospray ionization in the mode of multiple reaction monitoring. Ions of Q1 were monitored at m/z of 496.6, 524.6, 552.6, 580.6, 608.6 and 636.6 for LPC 16:0, LPC 18:0, LPC 20:0, LPC 22:0, LPC 24:0 and LPC 26:0, respectively. […] C16:0 LPC levels were expressed as a concentration. […]
The vehicle used was 2% TPGS and Compound 87 doses were prepared in 2% TPGS. […] DBS cards were stored at 4° C. until they could be analyzed for VLCFAs. DBS samples were prepared and analyzed using LC-MS/MS as described above.

WT mice = test: Reduction of blood C26:0 LPC in vivo in wild-type mice; design: species or system mouse; conditions: blood (DBS), plateau between the 2 mg/kg and 16 mg/kg doses, PO QD 28 days
Experimental: as §2
For DBS bioanalysis, the DBS card was punched at 3 mm in diameter using a semi-automated DBS card puncher. To each punched spot 200 μL of pure methanol was added. The vial was vortexed at low speed for 20 minutes and centrifuged at 4000 rpm for 20 minutes. The clear supernatant was injected onto LC-MS/MS for analysis. […]
as §3

hepatocyte CLint at 1 μM [1]: 23.6 µL/min/1e6 cells
hepatocyte CLint at 1 μM [2]: 7.2 µL/min/1e6 cells
Compound: O=C(Nc1ccn(-c2ccnc(F)c2)n1)C1(c2ccccc2F)CC1 [Compound 87, 1-(2-fluorophenyl)-N-[1-(2-fluoro-4-pyridyl)pyrazol-3-yl]cyclopropanecarboxamide]
body weight and adverse effects during treatment [3]: did not have a significant drop in body weight or any other noticeable adverse effect
reduction in blood C26:0 LPC [4]: ~50%
reduction in C26:0 LPC levels (maximal effect plateau) (WT mice): ~65%
